Measurements as given in publication PMC11589570, “Critical assessment of LC3/GABARAP ligands used for degrader development and ligandability of LC3/GABARAP binding pockets” (Nature Communications, 2024).
Like-named read-outs stand apart in the source and are kept apart here.

Tests used:
LC3B = LC3B (Homo sapiens, UniProt Q9GZQ8); conditions: LC3B:ligand molar ratio 1:2
[1] = biological target: T1, NanoLuc-fusion full-length LC3A (Homo sapiens, UniProt Q9H492); assay: NanoBRET cellular target engagement assay in HEK293T cells; format: cell-based; conditions: LC3A; 1 µM tracer; compound 4 for tracer 16, compound 3 for tracer 17
T1 construct: a fluorescent donor (in this case full length LC3A and LC3B); expressed in transfected cells; host or cells: HEK293T (ATCC; CRL-11268)

[2] = biological target: T2, NanoLuc-fusion full-length LC3B (Homo sapiens, UniProt Q9GZQ8); assay: as above; format: cell-based; conditions: LC3B; 1 µM tracer; compound 4 for tracer 16, compound 3 for tracer 17
T2 construct: a fluorescent donor (in this case full length LC3A and LC3B); expressed in transfected cells; host or cells: HEK293T (ATCC; CRL-11268)

Cc1ccc(C(=O)N(CCCN)[C@@H](c2nc3cc(Cl)ccc3c(=O)n2Cc2ccccc2)C(C)C)cc1 [compound 3, (R)-N-(3-aminopropyl)-N-(1-(3-benzyl-7-chloro-4-oxo-3,4-dihydroquinazolin-2-yl)−2-methylpropyl)−4-methylbenzamide]
CSP (LC3B; LC3B residue A75): 0.00171 ppm
CSP (LC3B; LC3B residue A78): 0.000906 ppm
CSP (LC3B; LC3B residue A114): 0.00141 ppm
CSP (LC3B; LC3B residue D19): 0.000707 ppm
CSP (LC3B; LC3B residue D48): 0.010 ppm
CSP (LC3B; LC3B residue D56): 0.00434 ppm
CSP (LC3B; LC3B residue D104): 0.002 ppm
CSP (LC3B; LC3B residue D106): 0.005 ppm
CSP (LC3B; LC3B residue E14): 0.00152 ppm
CSP (LC3B; LC3B residue E18): 0.003 ppm
CSP (LC3B; LC3B residue E25): 0.00212 ppm
CSP (LC3B; LC3B residue E36): 0.00158 ppm
CSP (LC3B; LC3B residue E41): 0.0011 ppm
CSP (LC3B; LC3B residue E62): 0.00213 ppm
CSP (LC3B; LC3B residue E97): 0.005 ppm
CSP (LC3B; LC3B residue E100): 0.004 ppm
CSP (LC3B; LC3B residue E102): 0.000721 ppm
CSP (LC3B; LC3B residue E105): 0.00232 ppm
CSP (LC3B; LC3B residue E117): 0.00224 ppm
CSP (LC3B; LC3B residue F07): 0.00141 ppm
CSP (LC3B; LC3B residue F13): 0.000721 ppm
CSP (LC3B; LC3B residue F52): 0.011 ppm
CSP (LC3B; LC3B residue F108): 0.006 ppm
CSP (LC3B; LC3B residue F119): 0.00255 ppm
CSP (LC3B; LC3B residue G40, estimated): 0.002 ppm
CSP (LC3B; LC3B residue G107): 0.002 ppm
CSP (LC3B; LC3B residue H27): 0.00453 ppm
CSP (LC3B; LC3B residue H57): 0.00237 ppm
CSP (LC3B; LC3B residue I23): 0.00158 ppm
CSP (LC3B; LC3B residue I31): 0.00281 ppm
CSP (LC3B; LC3B residue I34): 0.00571 ppm
CSP (LC3B; LC3B residue I35): 0.00158 ppm
CSP (LC3B; LC3B residue I64): 0.00474 ppm
CSP (LC3B; LC3B residue I66): 0.000721 ppm
CSP (LC3B; LC3B residue I67): 0.003 ppm
CSP (LC3B; LC3B residue K08): 0.00364 ppm
CSP (LC3B; LC3B residue K30): 0.000762 ppm
CSP (LC3B; LC3B residue K39): 0.00212 ppm
CSP (LC3B; LC3B residue K42): 0.00255 ppm
CSP (LC3B; LC3B residue K49): 0.00665 ppm
CSP (LC3B; LC3B residue K51): 0.00356 ppm
CSP (LC3B; LC3B residue K65): 0.00216 ppm
CSP (LC3B; LC3B residue K103): 0.00165 ppm
CSP (LC3B; LC3B residue L22): 0.002 ppm
CSP (LC3B; LC3B residue L44): 0.006 ppm
CSP (LC3B; LC3B residue L47): 0.009 ppm
CSP (LC3B; LC3B residue L53): 0.007 ppm
CSP (LC3B; LC3B residue L63): 0.004 ppm
CSP (LC3B; LC3B residue L71): 0.000566 ppm
CSP (LC3B; LC3B residue L73): 0.000849 ppm
CSP (LC3B; LC3B residue L109): 0.00144 ppm
CSP (LC3B; LC3B residue M01, estimated): 0.002 ppm
CSP (LC3B; LC3B residue M60): 0.00216 ppm
CSP (LC3B; LC3B residue M111): 0.00255 ppm
CSP (LC3B; LC3B residue N59): 0.009 ppm
CSP (LC3B; LC3B residue N74): 0.00173 ppm
CSP (LC3B; LC3B residue N76): 0.00171 ppm
CSP (LC3B; LC3B residue P02, estimated): 0.002 ppm
CSP (LC3B; LC3B residue P28, estimated): 0.005 ppm
CSP (LC3B; LC3B residue P32, estimated): 0.003 ppm
CSP (LC3B; LC3B residue P45, estimated): 0.005 ppm
CSP (LC3B; LC3B residue P55, estimated): 0.006 ppm
CSP (LC3B; LC3B residue Q09): 0.00173 ppm
CSP (LC3B; LC3B residue Q15): 0.00158 ppm
CSP (LC3B; LC3B residue Q26): 0.003 ppm
CSP (LC3B; LC3B residue Q43): 0.00158 ppm
CSP (LC3B; LC3B residue Q72): 0.00243 ppm
CSP (LC3B; LC3B residue Q77): 0.0011 ppm
CSP (LC3B; LC3B residue Q116): 0.00181 ppm
CSP (LC3B; LC3B residue R10): 0.00165 ppm
CSP (LC3B; LC3B residue R11): 0.0024 ppm
CSP (LC3B; LC3B residue R16): 0.00181 ppm
CSP (LC3B; LC3B residue R21): 0.002 ppm
CSP (LC3B; LC3B residue R24): 0.000424 ppm
CSP (LC3B; LC3B residue R37): 0.00181 ppm
CSP (LC3B; LC3B residue R68): 0.00643 ppm
CSP (LC3B; LC3B residue R69): 0.00362 ppm
CSP (LC3B; LC3B residue R70): 0.00566 ppm
CSP (LC3B; LC3B residue S03, estimated): 0.002 ppm
CSP (LC3B; LC3B residue S61): 0.00376 ppm
CSP (LC3B; LC3B residue S96): 0.004 ppm
CSP (LC3B; LC3B residue S101): 0.00148 ppm
CSP (LC3B; LC3B residue S115): 0.00122 ppm
CSP (LC3B; LC3B residue T06): 0.00255 ppm
CSP (LC3B; LC3B residue T12): 0.006 ppm
CSP (LC3B; LC3B residue T29, estimated): 0.002 ppm
CSP (LC3B; LC3B residue T50): 0.008 ppm
CSP (LC3B; LC3B residue T118): 0.00152 ppm
CSP (LC3B; LC3B residue V17): 0.0011 ppm
CSP (LC3B; LC3B residue V20): 0.00281 ppm
CSP (LC3B; LC3B residue V33): 0.00472 ppm
CSP (LC3B; LC3B residue V46): 0.00449 ppm
CSP (LC3B; LC3B residue V54): 0.009 ppm
CSP (LC3B; LC3B residue V58): 0.00542 ppm
CSP (LC3B; LC3B residue V98): 0.00173 ppm
CSP (LC3B; LC3B residue V112): 0.00638 ppm
CSP (LC3B; LC3B residue Y38): 0.00165 ppm
CSP (LC3B; LC3B residue Y99): 0.00144 ppm
CSP (LC3B; LC3B residue Y110): 0.00214 ppm
CSP (LC3B; LC3B residue Y113): 0.00232 ppm
NanoBRET signal / tracer displacement [1]: No displacement
NanoBRET signal / tracer displacement [2]: No displacement
